PubChem BioAssay AID300 (DTP/NCI, 2004)
Several values for one entry are separate records, joined by “and”; a condition that tells them apart may be missing. Identical values can stand only once. Inconclusive results are not listed. How the source made its calls: active means survival T/C of 150% or more; inactive means T/C below 125% in these data.

Tested on: Madison 109 lung carcinoma i.m., mice, median survival
Test: NCI In Vivo Anticancer Drug Screen. Data for tumor model Madison 109 Lung Carcinoma (intramuscular) in unknown mice
Settings: endpoint: median survival time, higher = longer survival
Protocol: The antitumor activity of compounds was measured in mice bearing transplantable tumors. Survival or tumor size were measured and the results are expressed as the measurement made in the treated group (T) divided by the measurement made in the vehicle treated control group (C). The tumor model used in this assay is Madison 109 Lung Carcinoma (intramuscular) in unknown mice

[1] = dose: 25.0 mg/kg/injection, schedule: Q01DX009 (ip), vehicle: water
[2] = dose: 50.0 mg/kg/injection, schedule: Q01DX009 (ip), vehicle: water

Measured: T/C

OC(CBr)C(O)C(O)C(O)CBr (configuration not stated)
inactive: dose: 25.0 mg/kg/injection, schedule: Q01DX009 (ip), vehicle: Klucel (hydroxypropylcellulose) (HPC) 94 % of control | dose: 50.0 mg/kg/injection, schedule: Q01DX009 (ip), vehicle: Klucel (hydroxypropylcellulose) (HPC) 123 % of control | dose: 100.0 mg/kg/injection, schedule: Q01DX009 (ip), vehicle: Klucel (hydroxypropylcellulose) (HPC) 117 % of control

CC1OC(O[C@H]2/C=C/C=C/C=C/C=C/C=C/C=C/C=C/[C@H](C)[C@@H](O)[C@@H](C)[C@H](C)OC(=O)C[C@H](O)C[C@H](O)CC[C@@H](O)[C@H](O)C[C@H](O)C[C@]3(O)C[C@H](O)[C@@H](C(=O)O)[C@H](C2)O3)C(O)C(N)C1O (some centres not stated)
inactive: dose: 6.25 mg/kg/injection, schedule: Q01DX009 (ip), vehicle: saline with Tween-80 108 % of control | dose: 12.5 mg/kg/injection, schedule: Q01DX009 (ip), vehicle: saline with Tween-80 118 % of control | dose: 25.0 mg/kg/injection, schedule: Q01DX009 (ip), vehicle: saline with Tween-80 88 % of control | dose: 50.0 mg/kg/injection, schedule: Q01DX009 (ip), vehicle: saline with Tween-80 110 % of control | dose: 100.0 mg/kg/injection, schedule: Q01DX009 (ip), vehicle: saline with Tween-80 93 % of control

O=[N+]([O-])c1ccc([N+](=O)[O-])c(Cl)c1
inactive: dose: 10.0 mg/kg/injection, schedule: Q02DX009 (ip), vehicle: water 122 % of control | dose: 20.0 mg/kg/injection, schedule: Q02DX009 (ip), vehicle: water 122 % of control | dose: 40.0 mg/kg/injection, schedule: Q02DX009 (ip), vehicle: water 122 % of control | dose: 80.0 mg/kg/injection, schedule: Q02DX009 (ip), vehicle: water 90 % of control

Cc1c(N)nc([C@H](CC(N)=O)NC[C@H](N)C(N)=O)nc1C(=O)N[C@H](C(=O)N[C@H](C)[C@@H](O)[C@H](C)C(=O)N[C@H](C(=O)NCCc1nc(-c2nc(C(=O)NCCC[S+](C)C)cs2)cs1)[C@@H](C)O)C(OC1OC(CO)C(O)C(O)C1OC1OC(CO)C(O)C(OC(N)=O)C1O)c1cnc[nH]1 (some centres not stated)
inactive: dose: 2.5 mg/kg/injection, schedule: Q04DX003 (ip), vehicle: saline 120 % of control | dose: 5.0 mg/kg/injection, schedule: Q04DX003 (ip), vehicle: saline 123 % of control | dose: 20.0 mg/kg/injection, schedule: Q04DX003 (ip), vehicle: saline 108 % of control | dose: 30.0 mg/kg/injection, schedule: Q04DX003 (ip), vehicle: saline 100 % of control

O=C(O)CCCc1ccc(N(CCCl)CCCl)cc1
inactive: dose: 1.5 mg/kg/injection, schedule: Q01DX009 (ip), vehicle: saline 105 % of control

NC(C=O)C(O)C(O)C(O)CO (configuration not stated)
inactive: dose: 400.0 mg/kg/injection, schedule: Q01DX009 (ip), vehicle: saline 98 % of control | dose: 800.0 mg/kg/injection, schedule: Q01DX009 (ip), vehicle: saline 93 % of control | dose: 1600.0 mg/kg/injection, schedule: Q01DX009 (ip), vehicle: saline 96 % of control | dose: 3200.0 mg/kg/injection, schedule: Q01DX009 (ip), vehicle: saline 110 % of control

CO[C@H]1/C=C/O[C@@]2(C)Oc3c(C)c(O)c4c(O)c(c(/C=N/N5C(C)CN(Cc6ccccc6)CC5C)c(O)c4c3C2=O)NC(=O)/C(C)=C\C=C\[C@H](C)[C@H](O)[C@@H](C)[C@@H](O)[C@@H](C)[C@H](OC(C)=O)[C@@H]1C (some centres not stated)
inactive: dose: 16.0 mg/kg/injection, schedule: Q03HX008 (ip), vehicle: saline 114 % of control | dose: 16.0 mg/kg/injection, schedule: Q03HX024 (ip), vehicle: saline 101 % of control | dose: 32.0 mg/kg/injection, schedule: Q03HX008 (ip), vehicle: saline 116 % of control | dose: 64.0 mg/kg/injection, schedule: Q01DX009 (ip), vehicle: saline 108 % of control | dose: 64.0 mg/kg/injection, schedule: Q03HX008 (ip), vehicle: saline 109 % of control | dose: 64.0 mg/kg/injection, schedule: Q04DX003 (ip), vehicle: saline 103 % of control | dose: 128.0 mg/kg/injection, schedule: Q01DX001 (ip), vehicle: saline 105 % of control | dose: 128.0 mg/kg/injection, schedule: Q04DX003 (ip), vehicle: saline 106 % of control | dose: 256.0 mg/kg/injection, schedule: Q01DX001 (ip), vehicle: saline 95 % of control

CC1=C(/C=C/C(C)=C/C=C/C(C)=C/C(=O)O)C(C)(C)CCC1
inactive: dose: 25.0 mg/kg/injection, schedule: Q01DX009 (ip), vehicle: other 94 % of control | dose: 50.0 mg/kg/injection, schedule: Q01DX009 (ip), vehicle: other 95 % of control

COc1cc2c(c(OC)c1OC)-c1ccc(OC)c(=O)cc1[C@@H](NC(C)=O)CC2
inactive: dose: 0.06 mg/kg/injection, schedule: Q01DX009 (ip), vehicle: water 100 % of control | dose: 0.12 mg/kg/injection, schedule: Q01DX009 (ip), vehicle: water 90 % of control | dose: 0.24 mg/kg/injection, schedule: Q01DX009 (ip), vehicle: water 100 % of control

CO[C@H](C(=O)[C@@H](O)[C@@H](C)O)[C@@H]1Cc2cc3cc(OC4CC(OC5CC(O)C(O)C(C)O5)C(O)C(C)O4)c(C)c(O)c3c(O)c2C(=O)[C@H]1OC1CC(OC2CC(OC3CC(C)(O)C(O)C(C)O3)C(O)C(C)O2)C(O)C(C)O1 (some centres not stated)
inactive: dose: 0.05 mg/kg/injection, schedule: Q01DX009 (ip), vehicle: water 100 % of control | dose: 0.1 mg/kg/injection, schedule: Q01DX009 (ip), vehicle: water 100 % of control | dose: 0.2 mg/kg/injection, schedule: Q01DX009 (ip), vehicle: water 115 % of control | dose: 0.3 mg/kg/injection, schedule: Q01DX009 (ip), vehicle: water 86 % of control and 110 % of control | dose: 0.4 mg/kg/injection, schedule: Q01DX009 (ip), vehicle: water 108 % of control and 115 % of control | dose: 0.5 mg/kg/injection, schedule: Q01DX009 (ip), vehicle: water 103 % of control

CC(=O)c1cccc(NC2C(N)C(NC(=O)N(C)C)(C(C)O)C(C)(O)C2(O)COC(=O)c2c(C)cccc2O)c1 (configuration not stated)
inactive: dose: 0.05 mg/kg/injection, schedule: Q01DX009 (ip), vehicle: other 111 % of control | dose: 0.3 mg/kg/injection, schedule: Q01DX009 (ip), vehicle: other 96 % of control | dose: 0.6 mg/kg/injection, schedule: Q01DX009 (ip), vehicle: other 119 % of control

NC(=O)c1ncn(C2OC(CO)C(O)C2O)n1 (configuration not stated)
inactive: dose: 12.5 mg/kg/injection, schedule: Q01DX009 (ip), vehicle: water 103 % of control | [1] 100 % of control | [2] 109 % of control | dose: 100.0 mg/kg/injection, schedule: Q01DX009 (ip), vehicle: water 115 % of control

C[C@]12C=CC(=O)C=C1CC[C@@H]1[C@@H]2C(=O)C[C@@]2(C)[C@H]1CC[C@]2(O)C(=O)CO
inactive: dose: 5.0 mg/kg/injection, schedule: Q01DX009 (ip), vehicle: saline 113 % of control | dose: 10.0 mg/kg/injection, schedule: Q01DX009 (ip), vehicle: saline 117 % of control | dose: 40.0 mg/kg/injection, schedule: Q01DX009 (ip), vehicle: saline 120 % of control

O=C(O)c1c(Cl)c(Cl)c(Cl)c(Cl)c1-c1c2cc(I)c(=O)c(I)c-2oc2c(I)c(O)c(I)cc12
inactive: dose: 4.0 mg/kg/injection, schedule: Q01DX009 (ip), vehicle: water 90 % of control | dose: 8.0 mg/kg/injection, schedule: Q01DX009 (ip), vehicle: water 102 % of control | [1] 100 % of control | dose: 32.0 mg/kg/injection, schedule: Q01DX009 (ip), vehicle: water 107 % of control | [2] 106 % of control | dose: 64.0 mg/kg/injection, schedule: Q01DX009 (ip), vehicle: water 99 % of control
